The record followed here is publication PMC11605156, “Triterpenoids from Ganoderma lucidum inhibit cytochrome P450 enzymes interfering with the metabolic process of specific clinical drugs” (Frontiers in Pharmacology, 2024).

In one series the target is T1, CYP2B6 (Homo sapiens, UniProt P20813).
T1 sequence (P20813 1-491): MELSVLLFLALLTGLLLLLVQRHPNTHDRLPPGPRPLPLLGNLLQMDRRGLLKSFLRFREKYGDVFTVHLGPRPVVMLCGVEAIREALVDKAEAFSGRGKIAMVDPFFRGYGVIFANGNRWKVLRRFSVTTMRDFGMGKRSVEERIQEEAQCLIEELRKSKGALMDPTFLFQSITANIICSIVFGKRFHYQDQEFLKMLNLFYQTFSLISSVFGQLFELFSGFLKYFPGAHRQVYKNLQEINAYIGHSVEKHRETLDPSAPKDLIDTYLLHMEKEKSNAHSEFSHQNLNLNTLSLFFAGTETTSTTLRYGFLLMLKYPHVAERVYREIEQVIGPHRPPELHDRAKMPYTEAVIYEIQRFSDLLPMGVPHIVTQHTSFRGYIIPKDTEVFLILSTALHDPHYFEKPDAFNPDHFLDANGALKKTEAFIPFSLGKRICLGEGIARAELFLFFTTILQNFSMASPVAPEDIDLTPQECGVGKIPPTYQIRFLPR
Nature of the series: CYP2B6 inhibition, probe/drug metabolism in human liver microsomes. In general terms: Microsomes from liver hold many membrane-bound enzymes, among them those of drug oxidation.

A further series addresses CYP2D6 (Homo sapiens, UniProt P10635). Nature of the series: CYP2D6 inhibition, dextromethorphan probe in human liver microsomes. Particulars: human, human liver microsomes, pH 7.4, probe dextromethorphan 5 μM, Residual activity (%) CYP2D6, HLM 0.5 mg/mL.
The target of the next series is CYP2C9 (Homo sapiens, UniProt P11712). Nature of the series: CYP2C9 inhibition, probe/drug metabolism in human liver microsomes.
A further series addresses T2, CYP2A6 (Homo sapiens, UniProt P11509).
T2 sequence (P11509 1-494): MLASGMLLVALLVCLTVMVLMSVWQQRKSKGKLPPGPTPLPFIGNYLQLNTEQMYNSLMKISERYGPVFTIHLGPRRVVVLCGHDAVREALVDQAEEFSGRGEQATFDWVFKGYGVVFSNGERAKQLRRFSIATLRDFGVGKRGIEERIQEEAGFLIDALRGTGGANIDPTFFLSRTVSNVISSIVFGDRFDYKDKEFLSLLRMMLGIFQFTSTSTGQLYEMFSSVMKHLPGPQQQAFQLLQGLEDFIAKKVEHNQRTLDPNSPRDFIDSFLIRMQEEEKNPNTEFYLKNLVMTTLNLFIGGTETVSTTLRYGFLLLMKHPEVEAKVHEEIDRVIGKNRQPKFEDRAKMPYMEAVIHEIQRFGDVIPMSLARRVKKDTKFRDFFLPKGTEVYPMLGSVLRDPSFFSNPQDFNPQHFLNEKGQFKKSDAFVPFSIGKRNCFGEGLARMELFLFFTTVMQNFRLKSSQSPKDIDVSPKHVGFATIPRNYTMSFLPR
Nature of the series: CYP2A6 inhibition, coumarin probe in human liver microsomes. Particulars: human, human liver microsomes, pH 7.4, probe coumarin 2 μM, Residual activity (%) CYP2A6, HLM 0.5 mg/mL.

A further series deals with CYP3A4, CYP2B6, CYP2C9. The experiment in a line: in vitro. To be noted: human. It counts as in vitro ADME. The protocol: Bupropion, artemisinin, efavirenz and sertraline are metabolized by CYP2B6. Diclofenac, valsartan, glimepiride and glibenclamide are metabolized by CYP2C9. Midazolam, imatinib, simvastatin and diltiazem are metabolized by CYP3A4.
Table S2. Information of clinical drugs
CYP subtype Drugs Metabolite Concentration Incubation time
CYP1A2 Melatonin 6-hydroxyl-melatonin 5 μM 30 min
Clozaril Demethyl-clozaril 10 μM 20 min
Riluzole Hydroxy-riluzole 5 μM 60 min
Phenacetin Deacetyl-phenacetin 40 μM 30 min
CYP2B6 Bupropion 4'-hydroxyl-bupropion 75 μM 30 min
Artemisinin Dihydroartemisinin 10 μM 30 min
Sertraline Demethyl-sertraline 5 μM 30 min
Efavirenz 8-hydroxyl-efavirenz 20 μM 30 min
CYP2C9 Diclofenac 4'-hydroxyl-diclofenac 4 μM 30 min
Valsartan 4-hydroxyl-valsartan 30 μM 30 min
Glimepiride Hydroxyl-glimepiride 50 μM 30 min
Glibenclamide Hydroxyl-glibenclamide 50 μM 30 min
CYP3A4 Midazolam 1'-hydroxyl-midazolam 5 μM 30 min
Simvastatin 6'-β-hydroxyl-simvastatin 10 μM 30 min
Diltiazem Demethyl-diltiazem 10 μM 30 min
Imatinib Demethyl-imatinib 5 μM 30 min

The target in a further series is CYP3A4 (Homo sapiens, UniProt P08684). The experiment in a line: CYP3A4 inhibition, probe/drug metabolism in human liver microsomes.
The next series has as its target CYP2C19 (Homo sapiens, UniProt P33261). Nature of the series: CYP2C19 inhibition, S-mephenytoin probe in human liver microsomes.

CYP3A4, sequence (P08684 whole entry): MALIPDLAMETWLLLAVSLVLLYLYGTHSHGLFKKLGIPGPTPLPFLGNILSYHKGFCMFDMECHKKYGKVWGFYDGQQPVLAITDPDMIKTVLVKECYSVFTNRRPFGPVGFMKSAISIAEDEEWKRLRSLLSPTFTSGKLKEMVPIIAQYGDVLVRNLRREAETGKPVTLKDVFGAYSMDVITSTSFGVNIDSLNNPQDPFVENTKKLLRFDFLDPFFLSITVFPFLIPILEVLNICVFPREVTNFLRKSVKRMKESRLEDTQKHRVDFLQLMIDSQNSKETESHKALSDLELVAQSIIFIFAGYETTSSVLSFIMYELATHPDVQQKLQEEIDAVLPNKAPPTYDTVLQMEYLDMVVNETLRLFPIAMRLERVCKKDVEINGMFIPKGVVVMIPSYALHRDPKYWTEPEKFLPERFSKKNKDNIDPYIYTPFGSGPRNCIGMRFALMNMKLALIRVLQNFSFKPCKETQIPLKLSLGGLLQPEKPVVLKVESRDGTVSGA
CYP2C9, sequence (P11712 whole entry): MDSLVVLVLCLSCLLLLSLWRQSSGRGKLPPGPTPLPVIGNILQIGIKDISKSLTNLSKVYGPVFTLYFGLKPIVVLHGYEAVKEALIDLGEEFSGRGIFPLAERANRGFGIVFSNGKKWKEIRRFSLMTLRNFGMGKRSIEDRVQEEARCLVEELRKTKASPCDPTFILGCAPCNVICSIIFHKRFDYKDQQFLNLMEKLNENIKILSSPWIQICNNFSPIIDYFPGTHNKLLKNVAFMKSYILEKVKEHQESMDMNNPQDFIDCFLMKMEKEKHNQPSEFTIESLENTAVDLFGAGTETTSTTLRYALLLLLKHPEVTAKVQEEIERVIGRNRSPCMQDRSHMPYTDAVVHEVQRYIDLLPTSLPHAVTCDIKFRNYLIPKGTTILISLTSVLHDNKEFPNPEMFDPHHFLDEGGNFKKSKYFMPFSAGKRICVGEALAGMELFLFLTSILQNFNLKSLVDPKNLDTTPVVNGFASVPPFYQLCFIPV
CYP2C19, sequence (P33261 whole entry): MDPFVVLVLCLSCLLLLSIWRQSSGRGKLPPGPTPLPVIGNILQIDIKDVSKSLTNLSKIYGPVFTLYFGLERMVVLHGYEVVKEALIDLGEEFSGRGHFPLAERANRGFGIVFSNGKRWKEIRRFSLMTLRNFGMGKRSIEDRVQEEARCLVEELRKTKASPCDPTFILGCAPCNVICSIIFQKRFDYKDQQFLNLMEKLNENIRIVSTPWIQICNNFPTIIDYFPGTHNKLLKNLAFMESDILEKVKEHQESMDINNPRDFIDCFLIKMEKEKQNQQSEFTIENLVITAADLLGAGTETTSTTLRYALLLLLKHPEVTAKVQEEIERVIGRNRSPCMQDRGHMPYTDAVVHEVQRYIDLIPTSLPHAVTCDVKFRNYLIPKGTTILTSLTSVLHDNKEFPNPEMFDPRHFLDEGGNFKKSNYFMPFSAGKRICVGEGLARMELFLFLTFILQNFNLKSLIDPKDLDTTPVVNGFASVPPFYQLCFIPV
CYP2D6, sequence (P10635 whole entry): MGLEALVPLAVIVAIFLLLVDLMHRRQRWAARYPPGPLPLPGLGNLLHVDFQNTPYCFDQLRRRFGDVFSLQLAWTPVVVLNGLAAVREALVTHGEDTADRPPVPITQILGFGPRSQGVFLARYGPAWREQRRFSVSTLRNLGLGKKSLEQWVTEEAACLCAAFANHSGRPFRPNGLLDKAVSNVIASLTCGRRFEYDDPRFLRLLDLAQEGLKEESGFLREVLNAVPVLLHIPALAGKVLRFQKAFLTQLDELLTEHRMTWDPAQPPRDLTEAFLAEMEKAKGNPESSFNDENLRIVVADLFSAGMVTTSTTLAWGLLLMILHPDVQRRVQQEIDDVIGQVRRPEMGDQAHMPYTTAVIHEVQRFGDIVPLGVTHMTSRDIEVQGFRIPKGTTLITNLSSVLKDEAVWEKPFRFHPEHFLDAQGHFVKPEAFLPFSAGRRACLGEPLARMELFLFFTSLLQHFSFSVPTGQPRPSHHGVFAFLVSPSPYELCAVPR

Regarding `CC(CCC(O)C(C)(O)CO)C1CCC2(C)C3=C(C(=O)CC12C)C1(C)CCC(=O)C(C)(C)C1CC3` (centres unmarked) [Compound 25, ganodrol C], the IC50 came out at 25.3 ± 3.7 µM at CYP2B6 (IC50 against CYP 2B6, substrate bupropion 75 μM, HLM); 21.5 ± 3.44 µM on CYP2B6 (IC50 against metabolism of artemisinin mediated by CYP2B6, substrate artemisinin 10 μM, 30 min); 24.3 ± 3.05 µM against CYP2B6 (IC50 against metabolism of efavirenz mediated by CYP2B6, substrate efavirenz 20 μM, 30 min); 25.1 ± 2.86 µM against CYP2B6 (IC50 against metabolism of sertraline mediated by CYP2B6, substrate sertraline 5 μM, 30 min); 10.3 ± 0.12 µM on CYP2C9 (IC50 against metabolism of glibenclamide mediated by CYP2C9, substrate glibenclamide 50 μM, 30 min); 12.3 ± 0.43 µM against CYP2C9 (IC50 against metabolism of glimepiride mediated by CYP2C9, substrate glimepiride 50 μM, 30 min). Moreover, the IC50 came to 14.3 ± 1.14 µM on CYP2C9 (IC50 against metabolism of valsartan mediated by CYP2C9, substrate valsartan 30 μM, 30 min); 4.78 µM on CYP3A4 (IC50 against CYP 3A4, substrate midazolam 5 μM, HLM); 5.12 ± 0.56 µM on CYP3A4 (IC50 against metabolism of diltiazem mediated by CYP3A4, substrate diltiazem 10 μM, 30 min); 7.57 ± 0.2 µM on CYP3A4 (IC50 against metabolism of imatinib mediated by CYP3A4, substrate imatinib 5 μM, 30 min); 4.5 ± 0.48 µM at CYP3A4 (IC50 against metabolism of simvastatin mediated by CYP3A4, substrate simvastatin 10 μM, 30 min); 15.4 µM on CYP2C19. The activity at 30 min on CYP2B6 (human, human liver microsomes, pH 7.4, probe bupropion 75 μM, Residual activity (%) CYP2B6, HLM 0.5 mg/mL, bupropion 75 μM, 30 min) was 56.8 ± 2.04%; on CYP2D6 it was 68.22 ± 0.44%; at CYP2C9 (human, human liver microsomes, pH 7.4, probe diclofenac 4 μM, Residual activity (%) CYP2C9, HLM 0.5 mg/mL, diclofenac 4 μM, 30 min) it was 32 ± 2.74%; at CYP2A6 it was 70.1 ± 2.15%; at CYP3A4 (human, human liver microsomes, pH 7.4, probe midazolam 5 μM, Residual activity (%) CYP3A4, HLM 0.5 mg/mL, midazolam 5 μM, 30 min), 30.1 ± 1.54%; at CYP2C19 (human, human liver microsomes, pH 7.4, probe S-mephenytoin 50 μM, Residual activity (%) CYP2C19, HLM 0.5 mg/mL, S-mephenytoin 50 μM, 30 min) it was 39.2 ± 4.83%. Further, the IC50 at 30 min is 11.4 µM at CYP2C9 (human, human liver microsomes, pH 7.4, probe diclofenac 4 μM, IC50 against CYP 2C9, substrate diclofenac 4 μM, HLM) and 4.5 to 25.3 µM in the series on CYP3A4, CYP2B6, CYP2C9.

What is called IC50 is the point on the concentration scale where inhibition reaches its midpoint.
